Data: article PMC11134608, “UBR5 forms ligand-dependent complexes on chromatin to regulate nuclear hormone receptor stability” (Molecular cell, 2023)

Legend:
androgen receptor (AR) [1] = conditions: testosterone, ref [48]-[50]; cited from earlier work
Excerpt: Instead, it is shuttled […] the nucleus following agonist binding and transcriptional activation.[48]–[50] The hydrophobic cleft of AR has several amino acid differences from other NRs, which preferentially accommodate bulkier FxxLF motifs instead of the classic LxxLL.[51],[52] We hypothesized that these sequence differences might also prevent UBR5-mediated degradation and asked whether altering the hydrophobic cleft in AR could c ...

GR and UBR5 = test: UBR5/GR interaction in cells (BRET); assay type: cell-based, human; conditions: ± dexamethasone, n = 3
Excerpt: Bioluminescence resonance energy transfer (BRET) experiments were done using the NanoBRET PPI kit (Promega, N1821) according to manufacturer’s instructions.

GR = GR degradation (western blot A549; GFP-GR reporter); assay type: cell-based, human
Method: Reporter cell lines were seeded in triplicate at a density of 1 million cells/ml in 100 μl per well in a 96 well plate and measured once. Ligand was added by Digital Dispenser (Tecan), and incubated at 37°C for the appropriate time before reading by flow cytometry. Cells were analyzed for GFP vs mCherry expression. GFP expression was normalized to mCherry signal and ligand treatments were compared to DMSO controls.
Membranes were blocked for 30 minutes to 1 hour at room temperature in Odyssey Blocking Buffer/PBS (LI-COR Biosciences), and incubated with primary antibodies at 4 °C overnight. Stained membranes were washed three times in Tris-buffered saline with Tween 20 (TBS-T) and incubated for 1 hour at room temperature with secondary IRDye-conjugated antibodies (LI-COR Biosciences). Membranes were washed three times in TBS-T before imaging (Odyssey Imaging System, LI-COR Biosciences).

[2] = tested on: dexamethasone-regulated gene expression in A549 cells; test: RNA sequencing of A549 cells; assay type: cell-based, human; conditions: A549, 0, 24, 48 h
Method: Cell lines were expanded, treated with ligand, and incubated at 37C. Cells were pelleted by centrifugation for 5 minutes, washed with cold PBS, and RNA was isolated by RNeasy kit (Qiagen) per manufacturer’s instructions. RNA was sent to Novogene for library preparation and sequencing, or prepared for sequencing (NEBNext, New England Biolabs) and sequenced on an Illumina NextSeq 550 sequencer.
Paired-end reads were aligned to the hg38.p13[81],[82] reference genome with the STAR[83] (v5.2.7b) aligner as part of the RSEM[99] command line tool. Gene transcript abundance was further quantified from aligned fragments using RSEM to generate a gene-by-sample matrix of expected counts. Differential expression was tested, as with the ChIP-seq data, using the DESeq[88],[93]2 and ashr[94] pipeline, this time calculating sample-specific scale factor offset using the method of median-ratio as implemented in the R package EBSeq[100] (v1.36.0). For plotting in heatmaps, genes were selected based on ChIP-seq peak annotation and subset.

[3] = tested on: GR and UBR5 on chromatin in A549 cells; test: ChIP-seq of GR and UBR5 in A549 cells; assay type: cell-based, human
Method: Cell lines were expanded (up to 50 million), treated with ligand, and incubated at 37 °C. Cells were pelleted by centrifugation for 5 minutes, washed twice with cold PBS, and resuspended, in 5 ml of room temperature PBS. 20 μl of 0.5M Disuccinimidyl glutarate (DSG) (ThermoFisher), was added and incubated for 30 minutes at room temperature. Cells were pelleted by centrifugation and resuspended in 8.325 ml of PBS and 8.325 ml of 2% formaldehyde and incubated for 30 minutes at room temperature. Cross-linking was quenched by the addition of 1665 μl of 1 M Tris-HCl pH 8.0 and 832.5 μl of 2.5 M glycine. Cells were pelleted and washed twice with PBS. Cross-linked cells were resuspended in LB1 Buffer (50mM HEPES-KOH, pH7.5, 140mM NaCl, 1mM EDTA, 10% Glycerol, 0.5% NP-40, 0.25% Triton X-100 in distilled water) and rotated for 10 minutes at 4C. Cells were pelleted and resuspended in LB2 (10mM Tris-HCl, pH 8.0, 200mM NaCl, 1mM EDTA, 0.5mM EGTA in distilled water) and rotated for 10 minutes at 4C. Cells were pelleted and resuspended in LB3 (10mM Tris-HCL, pH 8.0, 100mM NaCl, 1mM EDTA, 0.5mM EGTA, 0.1% Na-deoxycholate, 0.5% Na-Lauroylsarcosine, 1% Triton X-100, in distilled water) sonicated (Covaris, E220). […] Fragment length and concentrations were assessed using TapeStation (Agilent) and Qubit (ThermoFisher), and libraries were sequenced on an Illumina NextSeq 550 sequencer. […]

GR with NCOA2 and UBR5 = test: Co-immunoprecipitation time course for GR; assay type: cell-based, human; conditions: U937 GFP-GR, 0, 6, 12, 16, 24 h dexamethasone
Method: We performed time course co-immunoprecipitation experiments for GR and blotted for NCOA2, GR, and UBR5 at 0, 6, 12, 16, and 24 h following dexamethasone treatment. […] Unlike RARA, which binds constitutively to chromatin, GR is sequestered in the cytoplasm and rapidly translocates to the nucleus following agonist binding.[44],[45]
(§1) Blotting was done as described above.

AR^RARA mutant and UBR5 = test: Co-immunoprecipitation of UBR5 with AR-RARA mutants; assay type: cell-based, human; conditions: ± CI-4AS-1 and MG132
Excerpt: as §1

androgen receptor (AR) [4] = test: AR fluorescent reporter degradation; assay type: cell-based, human; conditions: n = 3; for AR reporter degradation, significance: CI-4AS-1 5, 10, 20 uM
Method: AR reporters with substitutions to the critical set of residues in the hydrophobic cleft (AR V713, V716, V730, and M734) were generated to match those found in RARA, RXRA, or GR. The wild-type AR reporter was not degraded following treatment with the synthetic AR agonist CI-4AS-1. […] Taken together, the data underscore the essentiality of the NR hydrophobic cleft for UBR5 binding and NR degradation.
Cells were analyzed for GFP vs mCherry expression.

UBR5-ER = test: In vitro FLAG-UBR5 pull-down of His-tagged ER; assay type: binding, human; conditions: 50 μM ER ligand
Method: 12 μL of FLAG M2 slurry were equilibrated with binding buffer (25 mM HEPES pH 7.4, 125 mM NaCl, 0.05% TWEEN-20). The resin was pelleted and excess buffer removed. 60 μL of fresh binding buffer was re-added, followed by addition of 15 pmol (2.5 μL ofa6 μM solution) of purified FLAG-UBR5 protein and incubated on a rotating wheel at 4°C for 60–90 minutes. The resin was pelleted, excess buffer removed, and 150 μL fresh binding buffer (supplemented with 50 μM ligand of interest or DMSO) added, followed by 150 pmol protein (binding partner protein of interest) and incubated for another 60 minutes. The resin was pelleted, excess buffer removed and washed with 400 μL of binding buffer (supplemented with ligand of interest or DMSO), and this process was repeated three times. The resin was pelleted, excess buffer removed and 45 μL of binding buffer supplemented with 1 mg/mL 3xFLAG peptide was added to elute proteins over 30 minutes on a rotating wheel at room temperature. The resin was pelleted, and 40 μL of the supernatant was collected and mixed with 12 μL of 5xSDS gel loading buffer. 6 μL of these samples were applied to SDS-PAGE on a 4–20% gradient gel (Biorad). The gel was transferred to a nitrocellulose membrane using the Trans-Blot Turbo Transfer System (Biorad). […]

C[C@]12CC[C@H]3[C@@H](CCC4=CC(=O)CC[C@@]43C)[C@@H]1CC[C@@H]2O [testosterone]
AR stability / ligand-induced degradation (androgen receptor (AR) [1]): stabilized by its endogenous ligand testosterone and does not undergo ligand-induced degradation

C[C@@H]1C[C@H]2[C@@H]3CCC4=CC(=O)C=C[C@]4(C)[C@@]3(F)[C@@H](O)C[C@]2(C)[C@@]1(O)C(=O)CO [dexamethasone]
UBR5 binding to GR in cells (GR and UBR5): promoted binding of UBR5 to GR in cells
effect of UBR5 shRNAs on GR degradation (GR; A549 western blot and reporter): rescued GR degradation
GR reporter degradation with predicted degron (cleft) mutations (GR; GFP-GR mutants, likewise mutation of the UBR5 HECT domain): impaired dexamethasone-induced GR degradation
effect of UBR5 knockdown on dexamethasone-regulated gene expression [2]: alter dexamethasone-regulated gene expression
GR ChIP-seq peaks ([3]; A549, 15 min and 24 h dexamethasone): strikingly gained 15 min after addition of dexamethasone and subsequently decreased following sustained (24 h) dexamethasone treatment
UBR5 ChIP-seq peaks ([3]; A549, 15 min dexamethasone): strongly increased after 15 min of dexamethasone treatment
sequential binding of NCOA2 and UBR5 to GR (GR with NCOA2 and UBR5): GR sequentially bound NCOA2 and then UBR5

CN1C(=O)C=C[C@]2(C)[C@H]3CC[C@]4(C)[C@@H](C(=O)Nc5ccccc5Cl)CC[C@H]4[C@@H]3CC[C@@H]12 [CI-4AS-1]
UBR5 binding to AR^RARA mutants (AR^RARA mutant and UBR5): strengthened binding in the presence of agonist
AR reporter degradation, significance (androgen receptor (AR) [4]; AR V713F V730L M734V (RXR matched)): **** (**** p<0.00005)
AR reporter degradation, significance (androgen receptor (AR) [4]; AR V713I V730I M734I (RARA matched)): ** (**p<0.005)
AR reporter degradation, significance (androgen receptor (AR) [4]; AR V713I V730L (GR matched)): **** (**** p<0.00005)
degradation of mutant AR reporters (androgen receptor (AR) [4]; hydrophobic cleft matched to RARA, RXRA or GR): efficiently degraded
degradation of wild-type AR reporter (androgen receptor (AR) [4]; wild-type AR): not degraded

C[C@]12CC[C@@H]3c4ccc(O)cc4CC[C@H]3[C@@H]1CC[C@@H]2O [estradiol, beta-Estradiol]
UBR5-ER interaction (UBR5-ER): induced by estradiol
